How the values were obtained:
[1] = test system: Japanese medaka (Oryzias latipes); assay: Fish Short‐Term Reproduction Assay; assay type: in vivo; settings: for GSI Female / GSI Male / HSI Female / HSI Male / Length Female / Length Male / Weight Female / Weight Male: completion of exposure
medaka Esr1 (mEsr1) [2] = target: T1, medaka Esr1 (mEsr1) (Oryzias latipes, UniProt P50241); assay: Medaka Esr1 reporter gene assay, antagonist assay; assay type: cell-based, Japanese medaka (Oryzias latipes); settings: E2 spiked at 1.0 nM (B); MAC = 1.0 × 10^−4 M
T1 sequence (P50241 1-620): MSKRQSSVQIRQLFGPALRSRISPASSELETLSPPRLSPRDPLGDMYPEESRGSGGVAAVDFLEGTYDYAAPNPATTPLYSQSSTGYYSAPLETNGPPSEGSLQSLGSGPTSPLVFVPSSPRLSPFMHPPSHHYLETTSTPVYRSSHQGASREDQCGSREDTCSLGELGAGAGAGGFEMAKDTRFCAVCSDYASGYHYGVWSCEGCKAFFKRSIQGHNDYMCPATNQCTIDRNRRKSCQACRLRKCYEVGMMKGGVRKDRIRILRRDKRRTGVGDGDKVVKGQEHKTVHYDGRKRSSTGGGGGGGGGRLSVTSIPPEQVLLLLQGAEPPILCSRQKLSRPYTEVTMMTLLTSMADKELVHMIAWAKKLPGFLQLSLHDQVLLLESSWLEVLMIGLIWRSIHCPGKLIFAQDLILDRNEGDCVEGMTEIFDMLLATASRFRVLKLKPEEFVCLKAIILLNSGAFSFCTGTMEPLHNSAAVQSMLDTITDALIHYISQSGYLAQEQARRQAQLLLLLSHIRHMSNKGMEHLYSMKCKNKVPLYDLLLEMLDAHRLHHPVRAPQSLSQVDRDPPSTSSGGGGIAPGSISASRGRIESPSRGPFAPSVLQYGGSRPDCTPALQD

medaka Esr1 (mEsr1) [3] = target: T1, medaka Esr1 (mEsr1); assay: cell-based; parameters: species or system Japanese medaka (Oryzias latipes)
medaka ARβ (mArβ) [4] = target: T2, medaka ARβ (mArβ) (Oryzias latipes, UniProt D1MV73); assay: Medaka ARβ reporter gene assay, antagonist assay; assay type: cell-based, Japanese medaka (Oryzias latipes); settings: 11‐KT spiked at 50 nM (D); MAC = 1.0 × 10^−4 M
T2 sequence (D1MV73 1-744): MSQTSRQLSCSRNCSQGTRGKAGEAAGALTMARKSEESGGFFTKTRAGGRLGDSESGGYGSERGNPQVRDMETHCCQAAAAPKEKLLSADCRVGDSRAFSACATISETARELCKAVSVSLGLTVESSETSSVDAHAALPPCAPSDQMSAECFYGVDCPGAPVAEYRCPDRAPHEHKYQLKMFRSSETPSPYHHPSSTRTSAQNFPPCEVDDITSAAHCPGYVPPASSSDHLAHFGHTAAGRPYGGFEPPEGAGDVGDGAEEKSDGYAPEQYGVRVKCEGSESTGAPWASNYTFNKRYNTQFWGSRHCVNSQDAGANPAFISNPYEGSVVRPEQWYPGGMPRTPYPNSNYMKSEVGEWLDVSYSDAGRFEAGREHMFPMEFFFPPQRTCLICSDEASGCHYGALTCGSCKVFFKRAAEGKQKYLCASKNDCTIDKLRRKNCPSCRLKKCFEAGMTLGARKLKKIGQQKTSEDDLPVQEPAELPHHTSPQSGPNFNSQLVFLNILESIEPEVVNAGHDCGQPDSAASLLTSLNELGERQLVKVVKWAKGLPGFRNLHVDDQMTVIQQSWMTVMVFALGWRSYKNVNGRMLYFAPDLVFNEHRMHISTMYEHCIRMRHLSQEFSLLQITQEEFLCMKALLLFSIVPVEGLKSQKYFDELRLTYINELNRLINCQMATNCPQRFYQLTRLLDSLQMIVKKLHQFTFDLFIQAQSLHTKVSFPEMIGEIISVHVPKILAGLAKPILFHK

medaka ARβ (mArβ) [5] = target: T2, medaka ARβ (mArβ); assay: Medaka ARβ reporter gene assay, agonist assay; assay type: cell-based, Japanese medaka (Oryzias latipes); settings: MAC = 1.0 × 10^−4 M
[6] = 9.75 mg/L measured, 21 d, sig. ↓ vs control
[7] = measured concentration 0.357 mg/L
[8] = measured concentration 1.90 mg/L
[9] = measured concentration 9.75 mg/L

COC(=O)c1ccc(O)cc1 [MPB, 4‐Hydroxybenzoate methyl]
Fertility rate ([1]; 0.357 mg/L measured, 21 d): 93 ± 2.9%
Hepatic VTG, female ([1]; 0.357 mg/L measured, 21 d): 3,450 ± 724 ng/mg‐liver
Hepatic VTG, male ([1]; 0.357 mg/L measured, 21 d): 1.7 ± 1.2 ng/mg‐liver
Mortality ([1]; 0.357 mg/L measured, 21 d): 0.0%
Mortality, number of dead fish ([1]; 0.357 mg/L measured, 21 d): 0
Number of fertilized eggs (per female per day) ([1]; 0.357 mg/L measured, 21 d): 27 ± 3.5
Number of total eggs (per female per day) ([1]; 0.357 mg/L measured, 21 d): 29 ± 3.3
SSC female (joint plates with papillary processes) ([1]; 0.357 mg/L measured, 21 d): 0 ± 0
Fertility rate ([1]; 1.90 mg/L measured, 21 d): 88 ± 7.7%
Hepatic VTG, female ([1]; 1.90 mg/L measured, 21 d): 3,890 ± 992 ng/mg‐liver
Mortality ([1]; 1.90 mg/L measured, 21 d): 0.0%
Mortality, number of dead fish ([1]; 1.90 mg/L measured, 21 d): 0
Number of fertilized eggs (per female per day) ([1]; 1.90 mg/L measured, 21 d): 24 ± 3.0
Number of total eggs (per female per day) ([1]; 1.90 mg/L measured, 21 d): 28 ± 3.3
SSC female (joint plates with papillary processes) ([1]; 1.90 mg/L measured, 21 d): 0 ± 0
SSC male (joint plates with papillary processes) ([1]; 1.90 mg/L measured, 21 d): 99 ± 12
Hepatic VTG, male ([1]; 1.90 mg/L measured, 21 d, sig. ↑ vs control): 153 ± 113 ng/mg‐liver
Hepatic VTG, female ([1]; 9.75 mg/L measured, 21 d): 3,930 ± 963 ng/mg‐liver
Mortality ([1]; 9.75 mg/L measured, 21 d): 13%
Mortality, number of dead fish ([1]; 9.75 mg/L measured, 21 d): 3
SSC female (joint plates with papillary processes) ([1]; 9.75 mg/L measured, 21 d): 0 ± 0
SSC male (joint plates with papillary processes) ([1]; 9.75 mg/L measured, 21 d): 93 ± 15
Hepatic VTG, male ([1]; 9.75 mg/L measured, 21 d, sig. ↑ vs control): 2,640 ± 1720 ng/mg‐liver
Fertility rate [1, 6]: 78 ± 4.8%
Number of fertilized eggs (per female per day) [1, 6]: 16 ± 2.3
Number of total eggs (per female per day) [1, 6]: 20 ± 2.2
Fecundity, number of total eggs (in words) ([1]; 21 d): statistically significant decrease
LOEC, elevated hepatic VTG in males ([1]; 21 d): 1.90 mg/L
Daily fecundity on the first day ([1]; Figure 3C): less than 10 eggs/female
LOECREPRO ([1]; LOEC on reproduction (fecundity and/or fertility)): 9,750 μg/L
minimal effective concentration ([1]; Oryzias latipes, 504 h, read-out: LOECmVTG): 1.9 µg/mL
LOECREPRO (reduction in fecundity or fertility) ([1]; concentrations without overt toxicity): 9,750 μg/L
LOECTOX ([1]; lowest observed effect concentration on mortality): ND (>9,750) μg/L
GSI Female [1, 7]: 11.0 ± 1.2%
GSI Male [1, 7]: 0.74 ± 0.18%
HSI Female [1, 7]: 4.4 ± 0.44%
HSI Male [1, 7]: 2.1 ± 0.16%
Length Female [1, 7]: 37.0 ± 1.3 mm
Length Male [1, 7]: 36.0 ± 0.5 mm
Weight Female [1, 7]: 589 ± 39 mg
Weight Male [1, 7]: 514 ± 28 mg
GSI Female [1, 8]: 11.0 ± 0.9%
GSI Male [1, 8]: 0.81 ± 0.06%
HSI Female [1, 8]: 4.7 ± 0.59%
HSI Male [1, 8]: 2.4 ± 0.21%
Length Female [1, 8]: 36.2 ± 1.2 mm
Length Male [1, 8]: 36.4 ± 1.3 mm
Weight Female [1, 8]: 574 ± 27 mg
Weight Male [1, 8]: 530 ± 47 mg
GSI Female [1, 9]: 9.8 ± 0.9%
GSI Male [1, 9]: 0.69 ± 0.15%
HSI Female [1, 9]: 5.4 ± 0.38%
HSI Male [1, 9]: 2.3 ± 0.60%
Length Female [1, 9]: 36.6 ± 1.4 mm
Length Male [1, 9]: 36.2 ± 1.1 mm
Weight Female [1, 9]: 603 ± 47 mg
Weight Male [1, 9]: 504 ± 62 mg
Antagonistic activity (medaka Esr1 (mEsr1) [2]): NE (MAC = 1.0 × 10^−4 M)^(B)
EC50 (medaka Esr1 (mEsr1) [3]): 70 µM
In vitro positive: Esr (medaka Esr1 (mEsr1) [3]; mode of action in which EC50 or PC10 was obtained in RGA): Esr
Antagonistic activity (medaka ARβ (mArβ) [4]): NE (MAC = 1.0 × 10^−4 M)^(D)
Agonistic activity (medaka ARβ (mArβ) [5]): NE (MAC = 1.0 × 10^−4 M)

— paper PMC9297976 (Journal of Applied Toxicology, 2021)
